From US20210392895A1, “NOVEL OXADIAZOLES” (PI INDUSTRIES LIMITED, priority 2018, published 2021)

Tested on: Phakopsora pachyrhizi
Assay: Phakopsora pachyrhizi test in soybean (greenhouse, preventive activity, disease severity rating)
Type: in vivo
Settings: preventive spray on soybean, compared to the untreated check
Protocol: To test the preventive activity of compounds, healthy young soybean plants, raised in the greenhouse, were sprayed with the active compound solution at the stated application rates inside spray cabinets using hallowcone nozzles. One day after treatment, the plants were inoculated with a suspension containing 2.1×10^6 Phakopsora pachyrhizi spores. The inoculated plants were then kept in the greenhouse chamber at 25° C. temperature and 90% relative humidity for disease expression. A visual assessment of the compound's performance was carried out by rating the disease severity (0-100% scale) on treated plants on 3, 7, 10 and 15 days after application. Efficacy (% control) of the compounds was calculated by comparing the disease rating in the treatment with the one of the untreated control. The treated plants were also assessed for plant compatibility by recording symptoms like necrosis, chlorosis and stunting.

Structure (SMILES)	pest or weed control at 500 ppm [%]
O=C(c1cccc(Br)c1)N1CC[C@H](Oc2ccc(-c3noc(C(F)(F)F)n3)cc2)C1 [Compound 3, (S)-(3-bromophenyl)(3-(4-(5-(trifluoromethyl)-1,2,4-oxadiazol-3-yl)phenoxy)pyrrolidin-1-yl)methanone]	> 70
CN(C)c1ccc(C(=O)N2CC[C@H](Oc3ccc(-c4noc(C(F)(F)F)n4)cc3)C2)cc1 [Compound 8, (S)-(4-(dimethylamino)phenyl)(3-(4-(5-(trifluoromethyl)-1,2,4-oxadiazol-3-yl)phenoxy)pyrrolidin-1-yl)methanone]	> 70
O=C(C1CCC1)N1CC[C@H](Oc2ccc(-c3noc(C(F)(F)F)n3)cc2)C1 [Compound 9, (S)-cyclobutyl(3-(4-(5-(trifluoromethyl)-1,2,4-oxadiazol-3-yl)phenoxy)pyrrolidin-1-yl)methanone]	> 70
O=C(c1ccc(F)cc1)N1CC[C@H](Oc2ccc(-c3noc(C(F)(F)F)n3)cc2)C1 [Compound 14, (S)-(4-fluorophenyl)(3-(4-(5-(trifluoromethyl)-1,2,4-oxadiazol-3-yl)phenoxy)pyrrolidin-1-yl)methanone]	> 70
O=C(c1ccccc1)N1CC[C@H](Oc2ccc(-c3noc(C(F)(F)F)n3)cc2)C1 [Compound 15, (S)-phenyl(3-(4-(5-(trifluoromethyl)-1,2,4-oxadiazol-3-yl)phenoxy)pyrrolidin-1-yl)methanone]	> 70
O=C(c1cccc(Br)c1)N1CC(Oc2ccc(-c3noc(C(F)(F)F)n3)cc2)C1 [Compound 16, (3-bromophenyl)(3-(4-(5-(trifluoromethyl)-1,2,4-oxadiazol-3-yl)phenoxy)azetidin-1-yl)methanone]	> 70
O=C(c1cccc(F)c1)N1CC(Oc2ccc(-c3noc(C(F)(F)F)n3)cc2)C1 [Compound 18, (3-fluorophenyl)(3-(4-(5-(trifluoromethyl)-1,2,4-oxadiazol-3-yl)phenoxy)azetidin-1-yl)methanone]	> 70
O=C(c1ccccc1F)N1CC(Oc2ccc(-c3noc(C(F)(F)F)n3)cc2)C1 [Compound 20, (2-fluorophenyl)(3-(4-(5-(trifluoromethyl)-1,2,4-oxadiazol-3-yl)phenoxy)azetidin-1-yl)methanone]	> 70
O=S(=O)(Cc1ccccc1)N1CC(Oc2ccc(-c3noc(C(F)(F)F)n3)cc2)C1 [Compound 22, 3-(4-((1-(benzylsulfonyl)azetidin-3-yl)oxy)phenyl)-5-(trifluoromethyl)-1,2,4-oxadiazole]	> 70
CC(C)(C)OC(=O)N1CC[C@H](Oc2ccc(-c3noc(C(F)(F)F)n3)cc2)C1 [Compound 23, tert-butyl (S)-3-(4-(5-(trifluoromethyl)-1,2,4-oxadiazol-3-yl)phenoxy)pyrrolidine-1-carboxylate]	> 70
O=S(=O)(c1ccccc1)N1CC[C@H](Oc2ccc(-c3noc(C(F)(F)F)n3)cc2)C1 [Compound 25, (S)-3-(4-((1-(phenylsulfonyl)pyrrolidin-3-yl)oxy)phenyl)-5-(trifluoromethyl)-1,2,4-oxadiazole]	> 70
O=S(=O)(c1cccc(F)c1)N1CC[C@H](Oc2ccc(-c3noc(C(F)(F)F)n3)cc2)C1 [Compound 26, (S)-3-(4-((1-((3-fluorophenyl)sulfonyl)pyrrolidin-3-yl)oxy)phenyl)-5-(trifluoromethyl)-1,2,4-oxadiazole]	> 70
CC(C)(C)OC(=O)N1CC[C@H](Oc2ccc(-c3noc(C(F)(F)F)n3)nc2)C1 [Compound 27, tert-butyl (S)-3-((6-(5-(trifluoromethyl)-1,2,4-oxadiazol-3-yl)pyridin-3-yl)oxy)pyrrolidine-1-carboxylate]	> 70
O=C(c1ccccc1F)N1CC[C@H](Oc2ccc(-c3noc(C(F)(F)F)n3)nc2)C1 [Compound 28, (S)-(2-fluorophenyl)(3-((6-(5-(trifluoromethyl)-1,2,4-oxadiazol-3-yl)pyridin-3-yl)oxy)pyrrolidin-1-yl)methanone]	> 70
COc1ccc(C(=O)N2CC[C@H](Oc3ccc(-c4noc(C(F)(F)F)n4)nc3)C2)cc1 [Compound 29, (S)-(4-methoxyphenyl)(3-((6-(5-(trifluoromethyl)-1,2,4-oxadiazol-3-yl)pyridin-3-yl)oxy)pyrrolidin-1-yl)methanone]	> 70
O=C(c1cccc(F)c1)N1CC[C@H](Oc2ccc(-c3noc(C(F)(F)F)n3)nc2)C1 [Compound 30, (S)-(3-fluorophenyl)(3-((6-(5-(trifluoromethyl)-1,2,4-oxadiazol-3-yl)pyridin-3-yl)oxy)pyrrolidin-1-yl)methanone]	> 70

Structure (SMILES)	pest or weed control at 500 ppm [%]
O=C(c1cccnc1)N1CC[C@H](Oc2ccc(-c3noc(C(F)(F)F)n3)nc2)C1 [Compound 31, (S)-pyridin-3-yl(3-((6-(5-(trifluoromethyl)-1,2,4-oxadiazol-3-yl)pyridin-3-yl)oxy)pyrrolidin-1-yl)methanone]	> 70
O=C(c1ccncc1)N1CC[C@H](Oc2ccc(-c3noc(C(F)(F)F)n3)nc2)C1 [Compound 32, (S)-pyridin-4-yl(3-((6-(5-(trifluoromethyl)-1,2,4-oxadiazol-3-yl)pyridin-3-yl)oxy)pyrrolidin-1-yl)methanone]	> 70
O=S(=O)(c1ccccc1F)N1CC[C@H](Oc2ccc(-c3noc(C(F)(F)F)n3)cc2)C1 [Compound 33, (S)-3-(4-((1-((2-fluorophenyl)sulfonyl)pyrrolidin-3-yl)oxy)phenyl)-5-(trifluoromethyl)-1,2,4-oxadiazole]	> 70
COc1ccc(S(=O)(=O)N2CC[C@H](Oc3ccc(-c4noc(C(F)(F)F)n4)cc3)C2)cc1 [Compound 34, (S)-3-(4-((1-((4-methoxyphenyl)sulfonyl)pyrrolidin-3-yl)oxy)phenyl)-5-(trifluoromethyl)-1,2,4-oxadiazole]	> 70
O=S(=O)(c1ccc(F)cc1)N1CC[C@H](Oc2ccc(-c3noc(C(F)(F)F)n3)cc2)C1 [Compound 35, (S)-3-(4-((1-((4-fluorophenyl)sulfonyl)pyrrolidin-3-yl)oxy)phenyl)-5-(trifluoromethyl)-1,2,4-oxadiazole]	> 70
O=C(c1ccc(OC(F)(F)F)cc1)N1CC[C@H](Oc2ccc(-c3noc(C(F)(F)F)n3)cc2)C1 [Compound 36, (S)-(4-(trifluoromethoxy)phenyl)(3-(4-(5-(trifluoromethyl)-1,2,4-oxadiazol-3-yl)phenoxy)pyrrolidin-1-yl)methanone]	> 70
O=C(Nc1ccccc1F)N1CC[C@H](Oc2ccc(-c3noc(C(F)(F)F)n3)cc2)C1 [Compound 37, (S)—N-(2-fluorophenyl)-3-(4-(5-(trifluoromethyl)-1,2,4-oxadiazol-3-yl)phenoxy)pyrrolidine-1-carboxamide]	> 70
O=C(Nc1ccc(F)cc1)N1CC[C@H](Oc2ccc(-c3noc(C(F)(F)F)n3)cc2)C1 [Compound 38, (S)-N-(4-fluorophenyl)-3-(4-(5-(trifluoromethyl)-1,2,4-oxadiazol-3-yl)phenoxy)pyrrolidine-1-carboxamide]	> 70
O=S(=O)(C1CC1)N1CC[C@H](Oc2ccc(-c3noc(C(F)(F)F)n3)cc2)C1 [Compound 41, (S)-3-(4-((1-(cyclopropylsulfonyl)pyrrolidin-3-yl)oxy)phenyl)-5-(trifluoromethyl)-1,2,4-oxadiazole]	> 70
O=S(=O)(c1ccc(F)cc1F)N1CC[C@H](Oc2ccc(-c3noc(C(F)(F)F)n3)cc2)C1 [Compound 42, (S)-3-(4-((1-((2,4-difluorophenyl)sulfonyl)pyrrolidin-3-yl)oxy)phenyl)-5-(trifluoromethyl)-1,2,4-oxadiazole]	> 70
O=C(C1CC1)N1CC[C@H](Oc2ccc(-c3noc(C(F)(F)F)n3)cc2)C1 [Compound 43, (S)-cyclopropyl(3-(4-(5-(trifluoromethyl)-1,2,4-oxadiazol-3-yl)phenoxy)pyrrolidin-1-yl)methanone]	> 70
O=C(c1ccc(Cl)cc1)N1CC[C@H](Oc2ccc(-c3noc(C(F)(F)F)n3)cc2)C1 [Compound 44, (S)-(4-chlorophenyl)(3-(4-(5-(trifluoromethyl)-1,2,4-oxadiazol-3-yl)phenoxy)pyrrolidin-1-yl)methanone]	> 70
COc1ccc(C(=O)N2CC[C@H](Oc3ccc(-c4noc(C(F)(F)F)n4)cn3)C2)cc1 [Compound 46, (S)-(4-methoxyphenyl)(3-((5-(5-(trifluoromethyl)-1,2,4-oxadiazol-3-yl)pyridin-2-yl)oxy)pyrrolidin-1-yl)methanone]	> 70
O=C(c1cccc(F)c1)N1CC[C@H](Oc2ccc(-c3noc(C(F)(F)F)n3)cn2)C1 [Compound 47, (S)-(3-fluorophenyl)(3-((5-(5-(trifluoromethyl)-1,2,4-oxadiazol-3-yl)pyridin-2-yl)oxy)pyrrolidin-1-yl)methanone]	> 70
CCS(=O)(=O)N1CC[C@H](Oc2ccc(-c3noc(C(F)(F)F)n3)cn2)C1 [Compound 50, (S)-3-(6-((1-(ethylsulfonyl)pyrrolidin-3-yl)oxy)pyridin-3-yl)-5-(trifluoromethyl)-1,2,4-oxadiazole]	> 70
C[N+]1(C)CC[C@H](Oc2ccc(-c3noc(C(F)(F)F)n3)cn2)C1 [Compound 51, (S)-1,1-dimethyl-3-((5-(5-(trifluoromethyl)-1,2,4-oxadiazol-3-yl)pyridin-2-yl)oxy)pyrrolidin-1-ium 2,2,2-trifluoroacetate]	> 70
